Patent US6303639A, “Propanolamine derivatives substituted by heterocyclic radicals, processes for their preparation, pharmaceuticals comprising these compounds and their use” (Aventis Pharma Deutschland GmbH, priority 1998, dated 2001)

Molecular target: T1, Na+-dependent bile acid transportation system (intestinal bile acid transportation system in the terminal small intestine) (Oryctolagus cuniculus, UniProt Q28727)
T1 construct: Brush border membrane vesicles from the intestinal cells of the small intestine were prepared by the so-called Mg^2+ precipitation method; from tissue; host or cells: brush border membrane vesicles from the terminal 7/10 of the small intestine (ileum) of male New Zealand rabbits
T1 sequence (Q28727 1-347): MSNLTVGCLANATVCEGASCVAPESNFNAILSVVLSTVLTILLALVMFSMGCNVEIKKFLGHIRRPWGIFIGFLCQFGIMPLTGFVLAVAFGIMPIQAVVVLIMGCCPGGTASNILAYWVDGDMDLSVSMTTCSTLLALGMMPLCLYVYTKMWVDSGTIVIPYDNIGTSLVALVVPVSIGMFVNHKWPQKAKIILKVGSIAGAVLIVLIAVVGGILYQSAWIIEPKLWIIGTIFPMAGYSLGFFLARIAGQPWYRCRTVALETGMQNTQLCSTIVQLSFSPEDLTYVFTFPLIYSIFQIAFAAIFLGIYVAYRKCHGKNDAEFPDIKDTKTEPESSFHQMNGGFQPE
Experiment: Inhibition of Na+-dependent [3H]-taurocholate uptake in brush border membrane vesicles of the ileum of rabbits
Format: biochemical
Conditions: rabbit ileum brush border membrane vesicles, 50 μM taurocholate, usually 1 minute incubation
Description: Biological testing of the compounds according to the invention was carried out by determining the inhibition of [^3 H]-taurocholate uptake in brush border membrane vesicles of the ileum of rabbits. The inhibition test was carried out as described below.
Test 1. Preparation of Brush Border Membrane Vesicles from the Ileum of Rabbits
Brush border membrane vesicles from the intestinal cells of the small intestine were prepared by the so-called Mg^2+ precipitation method as follows. Male New Zealand rabbits (2 to 2.5 kg body weight) were sacrificed by intravenous injection of 0.5 ml of T61®, an aqueous solution of 2.5 mg of tetracaine HCl, 100 mg of embutramide and 25 mg of mebezonium iodide. The small intestine was removed and flushed with ice-cold physiological saline solution. The terminal 7/10 of the small intestine (measured in the oral-rectal direction, i.e. the terminal ileum, which contains the active Na^+ -dependent bile acid transportation system) was used for preparation of the brush border membrane vesicles. The intestines were frozen in plastic bags under nitrogen at -80° C.
For preparation of the membrane vesicles, the frozen intestines were thawed at 30° C. in a water-bath. The mucosa were peeled off and suspended in 60 ml of ice-cold 12 mM TRIS-HCl buffer (pH 7.1)/300 mM mannitol, 5 mM EGTA/10 mg/l of phenylmethyl-sulfonyl fluoride/1 mg/l of trypsin inhibitor from soybeans (32 U/mg)/0.5 mg/l of trypsin inhibitor from the bovine lung (193 U/mg)/5 mg/l of bacitracin. After dilution to 300 ml with ice-cold distilled water, the mixture was homogenized with an Ultraturrax (18-rod, IKA Werk Staufen, Germany) for 3 minutes at 75% of the maximum power, while cooling with ice. After addition of 3 ml of 1 M MgCl2 solution (final concentration 10 mM), the mixture was left to stand for exactly 1 minute at 0° C. The cell membranes aggregated by addition of Mg^2+ and precipitated, with the exception of the brush border membranes. After centrifugation for 15 minutes at 3000×g (5000 rpm, SS-34 rotor), the precipitate was discarded and the supernatant, which contained the brush border membranes, was centrifuged at 48000×g (20000 rpm, SS-34 rotor) for 30 minutes. The supernatant was discarded and the precipitate was rehomogenized in 60 ml of 12 mM TRIS/HCI buffer (pH 7.1)/60 mM mannitol, 5 mM EGTA with a Potter Elvejhem homogenizer (Braun, Melsungen, 900 rpm, 10-stroke). After addition of 0.1 ml of 1 M MgCl2 solution and an incubation time of 15 minutes at 0° C., the mixture was centrifuged again at 3000×g for 15 minutes. The supernatant was then centrifuged again at 48000×g (20000 rpm, SS-34 rotor) for 30 minutes. The precipitate was taken up in 30 ml of 10 mM TRIS/HEPES buffer (pH 7.4)/300 mM mannitol and resuspended by 20 strokes in a Potter Elvejhem homogenizer at a 1000 rpm. After centrifugation at 48000×g (20000 rpm, SS-34 rotor) for 30 minutes, the precipitate was taken up in 0.5 to 2 ml of TRIS/HEPES buffer (pH 7.4)/280 mM mannitol (final concentration 20 mg/ml) and resuspended with the aid of a tuberculin syringe with a 27-gauge needle. The vesicles were either used for the transportation investigations directly after the preparation, or stored in 4 mg portions in liquid nitrogen at -196° C.
Test 2. Inhibition of the Na^+ -dependent [^3 H]Taurocholate Uptake in Brush Border Member Vesicles of the Ileum
The uptake of substrates into the brush border membrane vesicles described above was determined by means of the so-called membrane filtration technique. 10 μl of the vesicle suspension (100 μg of protein) were pipetted as drops onto the wall of a polystyrene incubation tube (11×70 mm) which contained the incubation medium with the corresponding ligands (90 μl). […]

| Biological Test: quotient of the IC50Na values of the reference substance taurochenodeoxycholate (TCDC) and of the test substance | SMILES |
| --- | --- |
| 0.37 | Cc1noc(C)c1C(O)C(c1ccccn1)C(Nc1ccccn1)c1ccccc1 (stereo not shown) [Example 31] |
| 0.24 | Cc1nc(C(O)C(c2ccccn2)C(Nc2ccccn2)c2ccccc2)sc1C (stereo not shown) [Example 33] |
| 9.53 | COc1ccsc1C(O)C(c1ccccn1)C(Nc1ccccn1)c1ccccc1 (stereo not shown) [Example 37] |
| 0.65 | Cc1nc(C)c(C(O)C(c2ccccn2)C(Nc2ccccn2)c2ccccc2N)s1 (stereo not shown) [Example 39] |
| 0.60 | OC(c1cc(-c2ccccc2)on1)C(c1ccccn1)C(Nc1ccccn1)c1ccccc1 (stereo not shown) [Example 41] |
| 0.87 | Cn1ccnc1C(O)C(c1ccccn1)C(Nc1ccccn1)c1ccccc1 (stereo not shown) [Example 42] |
| 0.23 | Cc1noc(C)c1C(O)C(c1ccccn1)C(Nc1ccccn1)c1ccccc1[N+](=O)[O-] (stereo not shown) [Example 43] |
| 0.74 | Cc1noc(C)c1C(O)C(c1ccccn1)C(Nc1ccccn1)c1ccccc1N (stereo not shown) [Example 44] |
| 0.22 | OC(c1cc2ccccc2[nH]1)C(c1ccccn1)C(Nc1ccccn1)c1ccccc1 (stereo not shown) [Example 46] |
| 0.35 | Cn1ncnc1C(O)C(c1ccccn1)C(Nc1ccccn1)c1ccccc1 (stereo not shown) [Example 47] |
| 0.80 | Cc1nc(C(O)C(c2ccccn2)C(Nc2ccccn2)c2ccccc2N)c(C)o1 (stereo not shown) [Example 48] |
| 0.77 | Cc1cc(C(O)C(c2ccccn2)C(Nc2ccccn2)c2ccccc2N)no1 (stereo not shown) [Example 49] |
| 0.79 | Cc1nc(-c2ccncc2)sc1C(O)C(c1ccccn1)C(Nc1ccccn1)c1ccccc1 (stereo not shown) [Example 50] |
| 0.52 | Cc1nc(-c2ccncc2)sc1C(O)C(c1ccccn1)C(Nc1ccccn1)c1ccccc1 (stereo not shown) [Example 51] |
| 0.40 | Cc1nc(-c2ccncc2)sc1C(O)C(c1ccccn1)C(Nc1ccccn1)c1ccccc1 (stereo not shown) [Example 52] |
| 0.31 | Nc1ccccc1C(Nc1ccccn1)C(c1ccccn1)C(O)c1ccon1 (stereo not shown) [Example 55] |

Continued, molecule first:

| SMILES | Biological Test: quotient of the IC50Na values of the reference substance taurochenodeoxycholate (TCDC) and of the test substance |
| --- | --- |
| OC(c1ccccc1)C(c1ccc2ccccc2n1)C(Nc1ccccn1)c1ccccc1 (stereo not shown) [Example 2] | 0.83 |
| OC(c1nccs1)C(c1ccccc1)C(Nc1ccccn1)c1ccccc1 (stereo not shown) [Example 4] | 0.1 |
| OC(c1ccccc1)C(c1cnc2ccccc2n1)C(Nc1ccccn1)c1ccccc1 (stereo not shown) [Example 6] | 0.57 |
| OC(c1ccccc1)C(c1cnc2ccccc2n1)C(Nc1ccccn1)c1ccccc1 (stereo not shown) [Example 7] | 0.22 |
| OC(c1ccccc1)C(c1cnc2ccccc2c1)C(Nc1ccccn1)c1ccccc1 (stereo not shown) [Example 9] | 0.35 |
| OC(c1cnccn1)C(c1ccccn1)C(Nc1ccccn1)c1ccccc1 (stereo not shown) [Example 11] | 0.24 |
| OC(c1cnccn1)C(c1ccccn1)C(Nc1ccccn1)c1ccccc1 (stereo not shown) [Example 12] | 0.24 |
| Cc1nc(C)c(C(O)C(c2ccccn2)C(Nc2ccccn2)c2ccccc2)s1 (stereo not shown) [Example 14] | 0.66 |
| OC(c1cnc2ccccc2c1)C(c1ccccn1)C(Nc1ccccn1)c1ccccc1 (stereo not shown) [Example 18] | 0.37 |
| OC(c1cnc2ccccc2c1)C(c1ccccn1)C(Nc1ccccn1)c1ccccc1 (stereo not shown) [Example 19] | 0.42 |
| OC(c1cnc2ccccc2c1)C(c1ccccn1)C(Nc1ccccn1)c1ccccc1 (stereo not shown) [Example 20] | 0.23 |
| OC(c1cccs1)C(c1ccccn1)C(Nc1ccccn1)c1ccccc1 (stereo not shown) [Example 21] | 1.16 |
| OC(c1cccs1)C(c1ccccn1)C(Nc1ccccn1)c1ccccc1 (stereo not shown) [Example 22] | 0.19 |
| OC(c1cccs1)C(c1ccccn1)C(Nc1ccccn1)c1ccccc1 (stereo not shown) [Example 23] | 0.23 |
| OC(c1cccs1)C(c1ccccn1)C(Nc1ccccn1)c1ccccc1 (stereo not shown) [Example 24] | 0.22 |
| Cc1nc(C(O)C(c2ccccn2)C(Nc2ccccn2)c2ccccc2)c(C)o1 (stereo not shown) [Example 25] | 0.46 |
| OC(c1ccc(Cl)s1)C(c1ccccn1)C(Nc1ccccn1)c1ccccc1 (stereo not shown) [Example 26] | 0.26 |
| Cc1ccc(C(O)C(c2ccccn2)C(Nc2ccccn2)c2ccccc2)s1 (stereo not shown) [Example 27] | 1.02 |
